Format in all cases: in vivo
The test system of test [1] is Botrytis cinerea (gray mold). The test is described as follows: Test 1 greenhouse foliar spray screen, gray mold on grape berries. Particulars: Botrytis cinerea, foliar; Test 1, spray on grape berries; disease control rating at 400 ppm / 100 ppm.
Test [2] concerns Puccinia recondita tritici (leaf rust). The test can be described thus: Test 1 greenhouse foliar spray screen, leaf rust on wheat. Particulars: Puccinia recondita, foliar, Test 1, foliar spray on wheat; disease control rating at 400 ppm / 100 ppm.
Another test relates to corn rootworm. The test is described as follows: Mite/insect screen, CRW. Particulars: percent mortality, read-out: CRW RESULTS %; for mortality at 12 ppm: CRW rate 12.00 ppm; for mortality at 24 ppm: CRW rate 24.00 ppm. The method in brief: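 Stock in acetone:alcohol 1:1 + TOXIMUL R 23 g/L + TOXIMUL S 13 g/L; diluted with water to indicated concentrations; mortality (%) after standard exposure.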

The test system of test [3] is Erysiphe graminis tritici (powdery mildew). The test can be described thus: Test 1 greenhouse foliar spray screen, powdery mildew on wheat. The conditions noted are these: Blumeria graminis, foliar, Test 1, foliar spray on wheat; disease control rating at 400 ppm / 100 ppm; read-out: POWD MDEW.
The test system of test [4] is melon aphids (Aphis gossypii Glover). The test is described as follows: Mite/insect screen, MA. The conditions noted are these: Aphis gossypii, foliar, percent mortality, foliar spray on squash, read-out: MA RESULTS %; for mortality at 200 ppm: rate 200 ppm; for mortality at 400 ppm: rate 400 ppm. The method in brief:
(§1)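 First, each compound was dissolved in an emulsifier-containing acetone/alcohol mixture and diluted with water. Next, leaves were sprayed until runoff and left to dry for an hour. For southern armyworm, two excised uninfested leaves went into a Petri dish with larvae; percent mortality followed standard exposure periods.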

Test [5] concerns Pyricularia oryzae (rice blast). The test can be described thus: whole plant or invertebrate. The conditions noted are these: Pyricularia oryzae, foliar, read-out: RICE BLAST, Test 1, foliar spray on rice; disease control rating at 400 ppm / 100 ppm.
Test [6] has as its system Twospotted spider mites (Tetranychus urticae Koch). The test is described as follows: Mite/insect screen, SM. Particulars: for mortality at 200 ppm / mortality at 400 ppm: Tetranychus urticae, foliar, percent mortality, foliar spray on squash, read-out: SM RESULTS %; for mortality at 200 ppm: rate 200 ppm; for mortality at 400 ppm: rate 400 ppm; for activity as miticides: summary statement in the description. The method in brief: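 Read-out: percent mortality after standard exposure periods. Test solutions were water dilutions of compound dissolved in acetone/alcohol (50:50) with emulsifier blends; leaves were sprayed to runoff on both surfaces and air-dried for one hour before exposure.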

Test [7] has as its system southern armyworm (Spodopetra eridania Cramer). The test can be described thus: Mite/insect screen, SAW. Particulars: Spodoptera eridania, foliar, percent mortality, foliar spray on squash, read-out: SAW RESULTS %; for mortality at 200 ppm: rate 200 ppm; for mortality at 400 ppm: rate 400 ppm. The method in brief:
as §1

The test system of test [8] is Pseudoperonospora cubensis (downy mildew). The test can be described thus: Test 1 greenhouse foliar spray screen, downy mildew on squash. Particulars: Pseudoperonospora cubensis, foliar, Test 1, foliar spray on squash; disease control rating at 400 ppm / 100 ppm; read-out: DOWN MDEW.

For the compound `Cc1ccc(CCOc2cc(Cl)nc3c(F)cccc23)cc1` [Example 193, 2-chloro-8-fluoro-4-[2-(4-methylphenyl)ethoxy]quinoline], the pest or weed control at 400 ppm in test [1] is 0 to 19%; in [2] it was 20 to 89%; in [3], 0 to 19%; in test [5], 0 to 19%; in test [8], 0 to 19%. In the test on corn rootworm, the mortality at 12 ppm was 0%. For the same compound, the mortality at 24 ppm in the test with corn rootworm is 0%. Moreover, the mortality at 200 ppm in test [4], in [6] and in test [7] was 0% in each case. Further, the mortality at 400 ppm in test [4], in [6] and in test [7] was 0% throughout.
In the case of `Clc1cc(Cl)c2c(OCCc3ccc(-c4ccccc4)cc3)ccnc2c1` [Example 194, 5,7-dichloro-4-[2-(1,1'-biphenyl)-4-ylethoxy]quinoline], the pest or weed control at 400 ppm lay in the range of 0 to 19% in [1]; 0 to 19% in test [2]; 20 to 89% in test [3]; 0 to 19% in test [5]; 0 to 19% in test [8]. For the same compound, in the test on corn rootworm, the mortality at 12 ppm came to 0%. Moreover, the mortality at 24 ppm with corn rootworm is 0%. The mortality at 200 ppm in [4], in [6] and in [7] was 0% each time. The mortality at 400 ppm in [4], in test [6] and in test [7] was 0% each time.
In the case of `COc1cccc(CCOc2ccnc3c(F)cccc23)c1` [Example 195, 4-[2-(3-methoxyphenyl)ethoxy]-8-fluoroquinoline], the pest or weed control at 400 ppm in [1] lay within 0 to 19%; in test [2] it was 90 to 100%; in [3], 90 to 100%; in test [5] it was 90 to 100%; in test [8], 90 to 100%. Moreover, the mortality at 24 ppm with corn rootworm was determined as 0%. The mortality at 400 ppm in [4], in test [6] and in test [7] was 0% throughout.
Take `COc1ccc(CCOc2ccnc3c(F)cccc23)cc1` [Example 196, 8-fluoro-4-[2-(4-methoxyphenyl)ethoxy]quinoline]: the pest or weed control at 400 ppm in test [1] is 0 to 19%; in test [2], 90 to 100%; in test [3], 90 to 100%; in test [5], 90 to 100%; in test [8], 90 to 100%. In the test on corn rootworm, the mortality at 24 ppm amounted to 0%. For the same compound, the values for the mortality at 400 ppm in test [4], in test [6] and in test [7] were 100%, 100% and 0%, respectively. For the same compound, the activity as miticides entry in test [6] is “particularly excellent activity”.
With `Fc1cccc2c(OCCc3cccc(Oc4ccccc4)c3)ccnc12` [Example 197, 8-fluoro-4-[2-(3-phenoxyphenyl)ethoxy]quinoline], the pest or weed control at 400 ppm is 0 to 19% in test [1]; 90 to 100% in test [2]; 90 to 100% in [3]; 90 to 100% in [5]; 20 to 89% in test [8]. Further, the mortality at 24 ppm in the test on corn rootworm was 0%. In addition, the mortality at 400 ppm in test [4] amounted to 80%; in test [6], 90%; in test [7], 80%. Also, the activity as miticides result in [6] is listed as “particularly excellent activity”.
Take `CC(C)(C)c1ccc(CCOc2ccnc3c(Br)cccc23)cc1` [Example 198, 8-bromo-4-[2-(4-(t-butyl)phenyl)ethoxy]quinoline]: the pest or weed control at 400 ppm in test [1], in test [2], in test [3], in test [5] and in test [8] was 0 to 19% throughout. The mortality at 24 ppm with corn rootworm was 0%. Also, the mortality at 400 ppm in [4] amounted to 80%; in [6] it was 90%; in test [7], 0%.
In the case of `COc1ccc(CCOc2ccnc3c(F)cccc23)cc1OC` [Example 199, 4-[2-(3,4-dimethoxyphenyl)ethoxy]-8-fluoroquinoline], the pest or weed control at 400 ppm is 0 to 19% in test [1]; 90 to 100% in [2]; 90 to 100% in test [3]; 90 to 100% in test [5]; 90 to 100% in [8]. Also, in the test with corn rootworm, the mortality at 24 ppm worked out at 100%. Also, the mortality at 400 ppm in test [4], in [6] and in test [7] was 0% throughout.
Regarding `Cc1ccc(CCOc2ccnc3cc(Cl)ccc23)cc1` [Example 204, 7-chloro-4-[2-(4-methylphenyl)ethoxy]quinoline], the pest or weed control at 400 ppm in test [1] is 0 to 19%; in test [2] it was 20 to 89%; in test [3], 20 to 89%; in test [5], 0 to 19%; in [8], 20 to 89%. The mortality at 12 ppm with corn rootworm came to 0%. The mortality at 24 ppm in the test on corn rootworm worked out at 0%. Further, the mortality at 200 ppm in [4], in test [6] and in test [7] was 0% each time. Besides, the figures for the mortality at 400 ppm in test [4], in test [6] and in test [7] were 50%, 0% and 100%, respectively.
As for `Cc1ccccc1CCOc1ccnc2c(F)cccc12` [Example 205, 8-fluoro-4-[2-(2-methylphenyl)ethoxy]quinoline], the pest or weed control at 400 ppm lay within 0 to 19% in test [1]; 90 to 100% in test [2]; 90 to 100% in test [3]; 90 to 100% in test [5]; 90 to 100% in test [8]. In addition, in the test with corn rootworm, the mortality at 24 ppm came to 0%. In addition, the mortality at 400 ppm in test [4], in [6] and in [7] was 0% in each case.
Take `CC(Cc1ccccc1)Oc1ccnc2c(F)cccc12` (centres unmarked) [Example 214, 8-fluoro-4-[1-(phenylmethyl)ethoxy]quinoline]: the pest or weed control at 400 ppm in [1] was in the range of 0 to 19%; in test [2], 20 to 89%; in [3], 20 to 89%; in test [5] it was 90 to 100%; in test [8], 90 to 100%. Moreover, in the test on corn rootworm, the mortality at 24 ppm turned out to be 0%. Further, the mortality at 400 ppm in test [4], in test [6] and in test [7] was 0% in each case.
In the case of `Clc1ccc(CCOc2ccnc3c(Br)cccc23)cc1` [Example 215, 8-bromo-4-[2-(4-chlorophenyl)ethoxy]quinoline], the pest or weed control at 400 ppm in test [1] was 0 to 19%; in [2], 20 to 89%; in test [3] it was 0 to 19%; in test [5] it was 20 to 89%; in test [8], 90 to 100%. Besides, the mortality at 24 ppm with corn rootworm is 0%. For the same compound, the mortality at 400 ppm in [4] stood at 100%; in test [6], 100%; in test [7], 0%.

These data come from patent EP0326331B1, “Substituted quinolines and cinnolines” (Dow AgroSciences LLC, priority 1988, dated 1989).
